Laboratory results as given in PubChem BioAssay (NCI).
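Growth conditions: 96-well plates. Treatment: test compound, 48 hours, 5 concentrations. Analysis: linear interpolation between bracketing concentrations; unreached endpoints set to highest concentration. At the GI50, growth is halved. At the TGI there is no net growth.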

How the values were obtained:
Assay in all cases: NCI tumour cell line growth inhibition, 48 h
[1] = tested on: LOX IMVI melanoma
[2] = tested on: OVCAR-5 ovarian
[3] = tested on: SF-539 CNS
[4] = tested on: DU-145 prostate
[5] = tested on: PC-3 prostate
[6] = tested on: MDA-MB-435
[7] = tested on: OVCAR-8 ovarian
[8] = tested on: T-47D breast
[9] = tested on: SK-MEL-2 melanoma
[10] = tested on: UACC-257 melanoma
[11] = tested on: SF-268 CNS
[12] = tested on: HT29 colon
[13] = tested on: ACHN renal
[14] = tested on: 786-0 renal
[15] = tested on: UACC-62 melanoma
[16] = tested on: NCI-H226 lung
[17] = tested on: SNB-19 CNS
[18] = tested on: SK-MEL-5 melanoma
[19] = tested on: OVCAR-3 ovarian
[20] = tested on: MDA-MB-231 breast
[21] = tested on: UO-31 renal
[22] = tested on: IGROV1 ovarian
[23] = tested on: A498 renal
[24] = tested on: SW-620 colon
[25] = tested on: OVCAR-4 ovarian
[26] = tested on: U251 CNS
[27] = tested on: CAKI-1 renal
[28] = tested on: SK-MEL-28 melanoma
[29] = tested on: SNB-75 CNS
[30] = tested on: MALME-3M melanoma
[31] = tested on: EKVX NSCLC
[32] = tested on: KM12 colon
[33] = tested on: COLO 205 colon
[34] = tested on: BT-549 breast
[35] = tested on: HS 578T breast
[36] = tested on: SF-295 CNS
[37] = tested on: MCF7 breast
[38] = tested on: M14 melanoma
[39] = tested on: A549 NSCLC
[40] = tested on: NCI/ADR-RES ovarian
[41] = tested on: NCI-H460 lung
[42] = tested on: HCT-116 colon
[43] = tested on: RPMI-8226 leukemia
[44] = tested on: NCI-H522 lung
[45] = tested on: K-562 leukemia
[46] = tested on: TK-10 renal
[47] = tested on: SK-OV-3 ovarian
[48] = tested on: HCT-15 colon
[49] = tested on: NCI-H23 lung
[50] = tested on: CCRF-CEM leukemia
[51] = tested on: HOP-92 NSCLC
[52] = tested on: MOLT-4 leukemia
[53] = tested on: HL-60(TB) leukemia
[54] = tested on: SN12C renal
[55] = tested on: HOP-62 NSCLC

Question: Which GI50 [1] does the source give for `COc1cc(/C=C2\C(=O)Nc3ccc(F)cc32)cc(OC)c1OC` here?
Answer: 20.5 µM

Question: And the TGI [1]?
Answer: > 100 µM

Question: What about the GI50 [2] of the same compound?
Answer: > 100 µM

Question: What about the TGI [2] of the same compound?
Answer: > 100 µM

Question: And the GI50 [3]?
Answer: > 100 µM

Question: And the TGI [3]?
Answer: > 100 µM

Question: And the GI50 [4]?
Answer: 18.4 µM

Question: And the TGI [4]?
Answer: > 100 µM

Question: And the GI50 [5]?
Answer: 40.4 µM

Question: And the TGI [5]?
Answer: > 100 µM

Question: What about the GI50 [6] of the same compound?
Answer: 5.5 µM

Question: And the TGI [6]?
Answer: > 100 µM

Question: And the GI50 [7]?
Answer: 64.2 µM

Question: And the TGI [7]?
Answer: > 100 µM

Question: What about the GI50 [8] of the same compound?
Answer: 7.2 µM

Question: And the TGI [8]?
Answer: > 100 µM

Question: And the GI50 [9]?
Answer: 96.4 µM

Question: And the TGI [9]?
Answer: > 100 µM

Question: And the GI50 [10]?
Answer: 87.6 µM

Question: And the TGI [10]?
Answer: > 100 µM

Question: And the GI50 [11]?
Answer: 28.3 µM

Question: What about the TGI [11] of the same compound?
Answer: > 100 µM

Question: And the GI50 [12]?
Answer: 24.8 µM

Question: What about the TGI [12] of the same compound?
Answer: > 100 µM

Question: And the GI50 [13]?
Answer: 50 µM

Question: And the TGI [13]?
Answer: > 100 µM

Question: And the GI50 [14]?
Answer: 31.2 µM

Question: And the TGI [14]?
Answer: > 100 µM

Question: What about the GI50 [15] of the same compound?
Answer: 11.7 µM

Question: What about the TGI [15] of the same compound?
Answer: > 100 µM

Question: What about the GI50 [16] of the same compound?
Answer: 23.7 µM

Question: What about the TGI [16] of the same compound?
Answer: > 100 µM

Question: And the GI50 [17]?
Answer: 38.4 µM

Question: And the TGI [17]?
Answer: > 100 µM

Question: And the GI50 [18]?
Answer: 17.3 µM

Question: What about the TGI [18] of the same compound?
Answer: > 100 µM

Question: What about the GI50 [19] of the same compound?
Answer: 22.8 µM

Question: What about the TGI [19] of the same compound?
Answer: > 100 µM

Question: What about the GI50 [20] of the same compound?
Answer: 3.16 µM

Question: What about the TGI [20] of the same compound?
Answer: 36.3 µM

Question: What about the GI50 [21] of the same compound?
Answer: 11.9 µM

Question: What about the TGI [21] of the same compound?
Answer: > 100 µM

Question: What about the GI50 [22] of the same compound?
Answer: 8.44 µM

Question: And the TGI [22]?
Answer: > 100 µM

Question: What about the GI50 [23] of the same compound?
Answer: 54 µM

Question: What about the TGI [23] of the same compound?
Answer: > 100 µM

Question: What about the GI50 [24] of the same compound?
Answer: 63.7 µM

Question: What about the TGI [24] of the same compound?
Answer: > 100 µM

Question: What about the GI50 [25] of the same compound?
Answer: 60 µM

Question: What about the TGI [25] of the same compound?
Answer: > 100 µM

Question: What about the GI50 [26] of the same compound?
Answer: 13.5 µM

Question: And the TGI [26]?
Answer: 49.4 µM

Question: And the GI50 [27]?
Answer: 15.8 µM

Question: What about the TGI [27] of the same compound?
Answer: > 100 µM

Question: And the GI50 [28]?
Answer: 56.7 µM

Question: What about the TGI [28] of the same compound?
Answer: > 100 µM

Question: And the GI50 [29]?
Answer: 9.18 µM

Question: What about the TGI [29] of the same compound?
Answer: 79.3 µM

Question: What about the GI50 [30] of the same compound?
Answer: 29.6 µM

Question: What about the TGI [30] of the same compound?
Answer: > 100 µM

Question: And the GI50 [31]?
Answer: 33.1 µM

Question: And the TGI [31]?
Answer: > 100 µM

Question: What about the GI50 [32] of the same compound?
Answer: 26.2 µM

Question: And the TGI [32]?
Answer: > 100 µM

Question: What about the GI50 [33] of the same compound?
Answer: 62.7 µM

Question: What about the TGI [33] of the same compound?
Answer: > 100 µM

Question: And the GI50 [34]?
Answer: 22.7 µM

Question: And the TGI [34]?
Answer: > 100 µM

Question: What about the GI50 [35] of the same compound?
Answer: 30.4 µM

Question: And the TGI [35]?
Answer: > 100 µM

Question: And the GI50 [36]?
Answer: > 100 µM

Question: What about the TGI [36] of the same compound?
Answer: > 100 µM

Question: And the GI50 [37]?
Answer: 4.73 µM

Question: What about the TGI [37] of the same compound?
Answer: > 100 µM

Question: What about the GI50 [38] of the same compound?
Answer: 63.5 µM

Question: And the TGI [38]?
Answer: > 100 µM

Question: What about the GI50 [39] of the same compound?
Answer: 51.8 µM

Question: And the TGI [39]?
Answer: > 100 µM

Question: And the GI50 [40]?
Answer: 18.9 µM

Question: And the TGI [40]?
Answer: > 100 µM

Question: What about the GI50 [41] of the same compound?
Answer: 19.6 µM

Question: And the TGI [41]?
Answer: > 100 µM

Question: What about the GI50 [42] of the same compound?
Answer: 21.2 µM

Question: What about the TGI [42] of the same compound?
Answer: > 100 µM

Question: What about the GI50 [43] of the same compound?
Answer: 56.8 µM

Question: And the TGI [43]?
Answer: > 100 µM

Question: And the GI50 [44]?
Answer: 22.8 µM

Question: And the TGI [44]?
Answer: > 100 µM

Question: And the GI50 [45]?
Answer: 5.67 µM

Question: What about the TGI [45] of the same compound?
Answer: > 100 µM

Question: What about the GI50 [46] of the same compound?
Answer: 68.5 µM

Question: And the TGI [46]?
Answer: > 100 µM

Question: And the GI50 [47]?
Answer: > 100 µM

Question: And the TGI [47]?
Answer: > 100 µM

Question: What about the GI50 [48] of the same compound?
Answer: 14.9 µM

Question: And the TGI [48]?
Answer: > 100 µM

Question: What about the GI50 [49] of the same compound?
Answer: 24 µM

Question: What about the TGI [49] of the same compound?
Answer: > 100 µM

Question: What about the GI50 [50] of the same compound?
Answer: 23.3 µM

Question: What about the TGI [50] of the same compound?
Answer: > 100 µM

Question: What about the GI50 [51] of the same compound?
Answer: 5.07 µM

Question: What about the TGI [51] of the same compound?
Answer: 42.8 µM

Question: What about the GI50 [52] of the same compound?
Answer: 9.26 µM

Question: What about the TGI [52] of the same compound?
Answer: > 100 µM

Question: What about the GI50 [53] of the same compound?
Answer: 8.39 µM

Question: What about the TGI [53] of the same compound?
Answer: > 100 µM

Question: What about the GI50 [54] of the same compound?
Answer: 51.8 µM

Question: What about the TGI [54] of the same compound?
Answer: > 100 µM

Question: And the GI50 [55]?
Answer: 35.8 µM

Question: And the TGI [55]?
Answer: > 100 µM
